In patent US20110166126A1, “Compositions and Methods for Modulating Endophthalmitis Using Fluoroquinolones” (priority 2007, published 2011):
Converted amounts (≈) assume the structure as drawn. “Also recorded” adds a separate entry of the source.

How the values were obtained:
[1] = test system: primary human corneal epithelial cells (HCEpiC); conditions: earlier study (PH07038); comparable or better potency compared to moxifloxacin; cited from earlier work
[2] = test system: IL-1β induced IL-8 release in THP-1 monocytes; assay: Effect on IL-1β-induced cytokine (IL-8) release from human THP-1 monocytes (Luminex); format: cell-based; conditions: for Effect on IL-1β induced IL-8 release / IC50: 18 h; for IC50: Homo sapiens, THP-1, 30 ng/mL IL-1β, four-parameter logistic fit, read-out: IC50 for inhibition of IL-1β induced IL-8 release
Description: Each treatment was performed in triplicate. Media was collected by centrifugation and used for determination of cytokine content using a cytokine Luminex kit. The alamarBlue assay was performed to evaluate cell viability.
After determining the optimal concentration of IL-1β to induce cytokine release (30 ng/mL), cells were pre-cultured in RPMI-1640 medium containing 10% dialyzed FBS in a T-75 flask. […] Each treatment was performed in triplicate. Media were collected and used for determination of cytokine content using a cytokine Luminex kit. AlamarBlue assay was performed to evaluate the cell viability.
(§1) Luminex: Median fluorescence intensity (MFI) was used to obtain the concentration of each cytokines in pg/ml based on the standard curve of each cytokine assayed by Luminex. The linear range of the standard curve for each cytokine was used for determination of cytokine concentration.
To determine inhibition of IL-1β-induced cytokine release into the medium by dexamethasone or fluoroquinolone compounds as well cell viability, statistical analysis was performed using one-way ANOVA-Dunnett's test on raw data, and P<0.05 was considered statistically significant.
A concentration vs. effect curve was plotted for experiment 2, using averaged data from selected samples. […] Data were fitted to a re-parameterized four-parameter logistic equation using similar methodology as that previously described, and utilizing the statistical analysis software JMP8.

[3] = test system: LPS-stimulated cytokine production in human THP-1 monocytes; assay: Inhibition of LPS-induced cytokine expression in human THP-1 monocytes (multiplex Luminex); format: cell-based; design: key to Inhibition of LPS-stimulated G-CSF production / Inhibition of LPS-stimulated GM-CSF production / Inhibition of LPS-stimulated IL-12p40 production / Inhibition of LPS-stimulated IL-1α production / Inhibition of LPS-stimulated IL-1β production / Inhibition of LPS-stimulated IL-1ra production / Inhibition of LPS-stimulated IL-6 production / Inhibition of LPS-stimulated IL-8 production / Inhibition of LPS-stimulated IP-10 production / Inhibition of LPS-stimulated MCP-1 production / Inhibition of LPS-stimulated MIP-1α production / Inhibition of LPS-stimulated VEGF production: “X” signifies significant inhibition at a particular concentration
Description: Human THP-1 monocytes (ATCC TIB 202) were purchased from American Type Culture Collection (Manassas, Va.) and maintained in RPMI 1640 medium (Invitrogen, Carlsbad, Calif.) supplemented with 10% fetal bovine serum (“FBS”, Invitrogen, Carlsbad, Calif.), 100 U/mL of penicillin (Invitrogen, Carlsbad, Calif.), and 100 μg/mL of streptomycin (Invitrogen, Carlsbad, Calif.) at 37° C. in a humidified incubator with 5% CO2. THP-1 cells were pre-cultured in RPMI 1640 medium containing 10% dialyzed serum for 24 h. […] Each treatment was performed in triplicate.
Samples were analyzed using multiplex bead technology, which utilizes microspheres as the solid support for immunoassays and allows the analysis of all cytokines from each sample (D. A. Vignali, J. Immunol. Methods, Vol. 243, 243-255 (2000)). Sixteen cytokines were measured according to the manufacturer's instructions. Briefly, 50 μl, of medium samples were incubated with antibody-coated capture beads overnight at 4° C. Washed beads were further incubated with biotin-labeled anti-human cytokine antibodies for 2 hours at room temperature followed by incubation with streptavidin-phycoerythrin for 30 min. Samples were analyzed using Luminex 200™ (Luminex, Austin, Tex.) and Beadview software v1.0 (Upstate Cell Signaling Solutions, Temecula, Calif.). Standard curves of known concentrations of recombinant human cytokines were used to convert fluorescence units (median fluorescence intensity) to cytokine concentration in pg/mL. Only the linear portions of the standard curves were used to quantify cytokine concentrations, and in instances where the fluorescence reading exceeded the linear range of the standard curve, an appropriate dilution was performed to ensure that the concentration was in the linear portion of the curve.
All cytokine concentrations (pg/mL) were expressed as mean±standard deviation. Statistical analysis comparing effects of treatment across groups was performed using a one-way ANOVA with a Dunnett's post-hoc comparison test using either vehicle control or LPS treatment as references. For all assays, p≦0.05 was predetermined as the criterion of statistical significance.

[4] = test system: LPS-stimulated cytokine production in human THP-1 monocytes; conditions: earlier study [8] (PH07025); better potency compared to moxifloxacin; cited from earlier work
[5] = test system: THP-1 monocytes; assay: IL-1β and LPS induced IL-8 release from THP-1 monocytes (experiment 1); format: cell-based, Human; conditions: 300, 100, 60, 30 and 10 ng/mL, 18 h
Description: Human monocytic (THP-1) cells were pre-cultured in basal RPMI-1640 medium (commercially available, for example, from Sigma Aldrich) containing 10% dialyzed FBS in a T-75 flask. After 24 h, cells were seeded in 48-well plates in RPMI-1640 medium containing 2% dialyzed FBS at a density of 5.0×10^5 cells/mL with vehicle, IL-1β (300, 100, 60, 30 and 10 ng/mL) and LPS (1 μg/mL) for 18 h (Table 3-1). Each treatment was performed in triplicate. Media were collected and used for determination of cytokine content using a cytokine Luminex kit. The alamarBlue assay was performed to evaluate the cell viability.
as §1
Data was expressed as mean±SD. To determine induction of cytokine release into the medium by IL-1β or LPS, statistical analysis was performed using one-way ANOVA-Dunnett's test, and P<0.05 was considered statistically significant.

[6] = 1 μg/mL, 10 μg/mL LPS, 18 hours
[7] = 10 μg/mL, 10 μg/mL LPS, 18 hours
[8] = 30 μg/mL, 10 μg/mL LPS, 18 hours
[9] = LPS-induced cytokine production, THP-1 monocytes

N[C@@H]1CCCCN(c2c(F)cc3c(=O)c(C(=O)O)cn(C4CC4)c3c2Cl)C1 [BOL-303224-A, besifloxacin]
Effect on IL-1β-stimulated cytokine expression in HCEpiC [1]: significantly inhibited
Effect on IL-1β induced IL-8 release ([2]; 10 μg/mL): significantly reduced; also recorded: diminished
Effect on IL-1β induced IL-8 release ([2]; 30 μg/mL and 10 μg/mL): significantly reduced
IC50 [2]: 7.5 µg/mL (≈ 19 µM)
Concentration needed to reduce IL-1β-induced IL-8 release relative to moxifloxacin ([2]; THP-1 cells): at a lower concentration than moxifloxacin
Inhibition of LPS-stimulated IL-1α production ([3]; 0.1 μg/mL, 10 μg/mL LPS, 18 hours): X
Inhibition of LPS-stimulated G-CSF production [3, 6]: X
Inhibition of LPS-stimulated IL-1ra production [3, 6]: X
Inhibition of LPS-stimulated IL-1α production [3, 6]: X
Inhibition of LPS-stimulated IL-6 production [3, 6]: X
Inhibition of LPS-stimulated G-CSF production [3, 7]: X
Inhibition of LPS-stimulated IL-1ra production [3, 7]: X
Inhibition of LPS-stimulated IL-1α production [3, 7]: X
Inhibition of LPS-stimulated IL-6 production [3, 7]: X
Inhibition of LPS-stimulated VEGF production [3, 7]: X
Inhibition of LPS-stimulated G-CSF production [3, 8]: X
Inhibition of LPS-stimulated GM-CSF production [3, 8]: X
Inhibition of LPS-stimulated IL-1ra production [3, 8]: X
Inhibition of LPS-stimulated IL-1α production [3, 8]: X
Inhibition of LPS-stimulated IL-1β production [3, 8]: X
Inhibition of LPS-stimulated IL-6 production [3, 8]: X
Inhibition of LPS-stimulated IL-8 production [3, 8]: X
Inhibition of LPS-stimulated IL-12p40 production [3, 8]: X
Inhibition of LPS-stimulated IP-10 production [3, 8]: X
Inhibition of LPS-stimulated MCP-1 production [3, 8]: X
Inhibition of LPS-stimulated MIP-1α production [3, 8]: X
Inhibition of LPS-stimulated VEGF production [3, 8]: X
Effect on LPS-stimulated production of RANTES ([3]; 0.1-30 μg/mL, THP-1 monocytes): Neither moxifloxacin nor compound having Formula IV altered
Effect on LPS-stimulated production of fractalkine ([3]; 0.1-30 μg/mL, THP-1 monocytes): Neither moxifloxacin nor compound having Formula IV altered
Effects on GM-CSF, IL-1β, IL-8, IP-10, MCP-1, and MIP-1α after LPS stimulation (comparison of the two fluoroquinolones) ([3]; FIG. 1): comparable effects
Relative potency on G-CSF, IL-1α, IL-1ra, IL-6, and VEGF ([3]; FIG. 2, LPS-stimulated THP-1 monocytes): better potency than moxifloxacin
Concentration at which a significant inhibitory effect was observed for G-CSF [3, 9]: 1 µg/mL
Concentration at which a significant inhibitory effect was observed for GM-CSF [3, 9]: 30 µg/mL
Concentration at which a significant inhibitory effect was observed for IL-1α [3, 9]: 0.1 µg/mL
Concentration at which a significant inhibitory effect was observed for IL-1β [3, 9]: 30 µg/mL
Concentration at which a significant inhibitory effect was observed for IL-6 [3, 9]: 1 µg/mL
Concentration at which a significant inhibitory effect was observed for IL-8 [3, 9]: 30 µg/mL
Concentration at which a significant inhibitory effect was observed for IL-12p40 [3, 9]: 30 µg/mL
Concentration at which a significant inhibitory effect was observed for IP-10 [3, 9]: 30 µg/mL
Concentration at which a significant inhibitory effect was observed for MCP-1 [3, 9]: 30 µg/mL
Concentration at which a significant inhibitory effect was observed for MIP-1α [3, 9]: 30 µg/mL
Concentration as low as which a significant inhibitory effect was seen on IL-1α ([3]; LPS-stimulated THP-1 monocytes): 100 ng/mL
Concentration at which a significant inhibitory effect was seen on G-CSF ([3]; LPS-stimulated THP-1 monocytes): 1000 ng/mL
Concentration at which a significant inhibitory effect was seen on IL-1ra ([3]; LPS-stimulated THP-1 monocytes): 1000 ng/mL
Concentration at which a significant inhibitory effect was seen on IL-6 ([3]; LPS-stimulated THP-1 monocytes): 1000 ng/mL
Effect on lipopolysaccharide (LPS)-stimulated cytokine expression in THP-1 human monocytes [4]: significantly inhibited

COc1c(N2C[C@@H]3CCCN[C@@H]3C2)c(F)cc2c(=O)c(C(=O)O)cn(C3CC3)c12 [Moxifloxacin, moxifloxacin, reference compound]
IC50 [2]: 10.9 ± 4.8 µg/mL (≈ 27.2 µM)
Inhibition of LPS-stimulated IL-12p40 production [3, 6]: X
Inhibition of LPS-stimulated IL-1ra production [3, 7]: X
Inhibition of LPS-stimulated IL-6 production [3, 7]: X
Inhibition of LPS-stimulated IL-12p40 production [3, 7]: X
Inhibition of LPS-stimulated IL-1ra production [3, 8]: X
Inhibition of LPS-stimulated IL-1α production [3, 8]: X
Inhibition of LPS-stimulated IL-1β production [3, 8]: X
Inhibition of LPS-stimulated IL-8 production [3, 8]: X
Inhibition of LPS-stimulated IL-12p40 production [3, 8]: X
Inhibition of LPS-stimulated IP-10 production [3, 8]: X
Inhibition of LPS-stimulated MIP-1α production [3, 8]: X
Inhibition of LPS-stimulated VEGF production [3, 8]: X
Concentration at which a significant inhibitory effect was observed for IL-1ra [3, 9]: 10 µg/mL
Concentration at which a significant inhibitory effect was observed for IL-1α [3, 9]: 30 µg/mL
Concentration at which a significant inhibitory effect was observed for IL-1β [3, 9]: 30 µg/mL
Concentration at which a significant inhibitory effect was observed for IL-6 [3, 9]: 10 µg/mL
Concentration at which a significant inhibitory effect was observed for IL-8 [3, 9]: 30 µg/mL
Concentration at which a significant inhibitory effect was observed for IL-12p40 [3, 9]: 1 µg/mL
Concentration at which a significant inhibitory effect was observed for IP-10 [3, 9]: 30 µg/mL
Concentration at which a significant inhibitory effect was observed for MIP-1α [3, 9]: 30 µg/mL

IL-1β: interleukin-1β, used to induce cytokine release in THP-1 cells
Stimulation of IL-8 release [5]: stimulated
